Activity calls are given as the source filed them. No cut-off for these calls is given here.
How the values were obtained:
[1] = target: Cyclin-dependent kinase 8 (Homo sapiens, UniProt P49336); assay: Displacement of polymer supported probe 25 binding to CDK8 in human THP-1 cell lysates preincubated for 45 mins under shaking condition followed by probe addition and measured after 30 mins by mass spectrometry based chemoproteomic analysis; format: subcellular; conditions: read-out: Kd(app)
THP-1 [2] = assay: Selectivity ratio of Kd(app) for displacement of polymer supported probe 25 binding to GSG2 in human THP-1 cell lysates to Kd(app) for displacement of polymer supported probe 25 binding to IRAK3 in human THP-1 cell lysates
[3] = target: T1, Protein cereblon/Interleukin-1 receptor-associated kinase 3 (Homo sapiens, UniProt Q9Y616+Q96SW2); assay: Protac activity at CRBN/IRAK3 in LPS-induced human THP1 cells assessed as induction of IRAK3 degradation after 16 hrs by Western blot analysis relative to control; format: cell-based; conditions: THP-1
[4] = target: T1, Protein cereblon/Interleukin-1 receptor-associated kinase 3; assay: Protac activity at CRBN/IRAK3 in human THP1 cells assessed as induction of IRAK3 degradation at 0.1 uM measured after 6 hrs in presence of 10 uM thalidomide by Western blot analysis; format: cell-based; conditions: THP-1
[5] = target: T1, Protein cereblon/Interleukin-1 receptor-associated kinase 3; assay: Protac activity at CRBN/IRAK3 in human THP1 cells assessed as induction of IRAK3 degradation at 0.1 uM measured after 6 hrs in presence of IRAK3 ligand cis-1-(4-(4-((5-Isopropylpyrrolo[2,1-f][1,2,4]triazin-4-yl)amino)-cyclohexyl)piperazin-1-yl)ethanone by Western blot analysis; format: cell-based; conditions: THP-1
[6] = Octanol/buffer partition coefficient, log D of the compound at pH 7.4 by shake-flask method; format: physicochemical
[7] = target: NT-3 growth factor receptor (Homo sapiens, UniProt Q16288); assay: Inhibition of NTRK3 (unknown origin)
[8] = target: T1, Protein cereblon/Interleukin-1 receptor-associated kinase 3; assay: Protac activity at CRBN/IRAK3 in human THP1 cells assessed as induction of IRAK3 degradation at 0.1 uM measured after 24 hrs by Western blot analysis; format: cell-based; conditions: THP-1
[9] = target: T2, Serine/threonine-protein kinase haspin (Homo sapiens, UniProt Q8TF76); assay: Displacement of polymer supported probe 25 binding to GSG2 in human THP-1 cell lysates preincubated for 45 mins under shaking condition followed by probe addition and measured after 30 mins by mass spectrometry based chemoproteomic analysis; format: subcellular; conditions: read-out: Kd(app)
T2 sequence (Q8TF76 whole entry): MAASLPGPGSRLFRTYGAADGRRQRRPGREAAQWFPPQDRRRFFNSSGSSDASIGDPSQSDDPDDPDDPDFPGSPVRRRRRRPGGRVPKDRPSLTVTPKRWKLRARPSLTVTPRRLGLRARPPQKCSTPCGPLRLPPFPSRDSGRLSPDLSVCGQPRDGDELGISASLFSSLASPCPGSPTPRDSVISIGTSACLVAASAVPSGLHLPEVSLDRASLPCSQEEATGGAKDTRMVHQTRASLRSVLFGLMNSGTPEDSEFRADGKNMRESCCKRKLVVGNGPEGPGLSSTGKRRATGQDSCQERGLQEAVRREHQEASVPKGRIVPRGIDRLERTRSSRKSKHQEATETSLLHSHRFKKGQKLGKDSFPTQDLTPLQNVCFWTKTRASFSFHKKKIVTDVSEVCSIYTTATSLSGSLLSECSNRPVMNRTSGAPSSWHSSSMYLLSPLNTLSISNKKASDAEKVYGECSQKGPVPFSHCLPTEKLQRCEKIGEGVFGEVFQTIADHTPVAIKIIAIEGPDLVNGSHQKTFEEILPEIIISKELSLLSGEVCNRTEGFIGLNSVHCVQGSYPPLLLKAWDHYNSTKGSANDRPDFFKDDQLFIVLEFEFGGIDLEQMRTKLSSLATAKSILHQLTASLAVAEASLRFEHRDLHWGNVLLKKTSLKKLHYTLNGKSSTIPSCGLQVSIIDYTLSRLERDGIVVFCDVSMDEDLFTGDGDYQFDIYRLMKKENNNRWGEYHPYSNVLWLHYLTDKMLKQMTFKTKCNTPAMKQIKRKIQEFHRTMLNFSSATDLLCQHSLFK

[10] = target: T1, Protein cereblon/Interleukin-1 receptor-associated kinase 3; assay: Protac activity at CRBN/IRAK3 in human THP1 cells assessed as induction of IRAK3 degradation at 0.1 uM preincubated for 16 hrs followed by compound washout and measured after 24 hrs by Western blot analysis; format: cell-based; conditions: THP-1
[11] = target: Cyclin-C/Cyclin-dependent kinase 19 (Homo sapiens) (UniProt Q9BWU1+P24863); assay: Inhibition of CDK11/cyclin C (unknown origin) at 0.1 uM relative to control; format: protein-complex assay
THP-1 [12] = assay: Selectivity ratio of Kd(app) for displacement of polymer supported probe 25 binding to IRAK1 in human THP-1 cell lysates to Kd(app) for displacement of polymer supported probe 25 binding to IRAK3 in human THP-1 cell lysates
THP-1 [13] = assay: Selectivity ratio of Kd(app) for displacement of polymer supported probe 25 binding to CDK8 in human THP-1 cell lysates to Kd(app) for displacement of polymer supported probe 25 binding to IRAK3 in human THP-1 cell lysates
[14] = target: Serine/threonine-protein kinase haspin (Homo sapiens) (UniProt Q8TF76); assay: Inhibition of GSG2 (unknown origin) at 0.1 uM relative to control
[15] = target: T1, Protein cereblon/Interleukin-1 receptor-associated kinase 3; assay: Protac activity at CRBN/IRAK3 in human THP1 cells assessed as induction of IRAK3 degradation at 0.1 uM measured after 6 hrs in presence of proteasome inhibitor MG132 by Western blot analysis; format: cell-based; conditions: THP-1
[16] = target: T1, Protein cereblon/Interleukin-1 receptor-associated kinase 3; assay: Protac activity at CRBN/IRAK3 in human PBMC derived primary macrophages assessed as induction of IRAK3 degradation at 0.3 uM preincubated for 8 hrs followed by LPS-stimulation and measured after 8 to 32 hrs by Western blot analysis; format: tissue-based; conditions: Primary macrophage
CDK8/Cyclin C = CDK8/Cyclin C (Homo sapiens, UniProt P49336); assay: Inhibition of CDK8/cyclin C (unknown origin); format: protein-complex assay
[17] = target: BDNF/NT-3 growth factors receptor (Homo sapiens) (UniProt Q16620); assay: Inhibition of NTRK2 (unknown origin) at 0.1 uM relative to control
Chain of BDNF/NT-3 growth factors receptor (Homo sapiens) (Q16620 32-822 limits assumed): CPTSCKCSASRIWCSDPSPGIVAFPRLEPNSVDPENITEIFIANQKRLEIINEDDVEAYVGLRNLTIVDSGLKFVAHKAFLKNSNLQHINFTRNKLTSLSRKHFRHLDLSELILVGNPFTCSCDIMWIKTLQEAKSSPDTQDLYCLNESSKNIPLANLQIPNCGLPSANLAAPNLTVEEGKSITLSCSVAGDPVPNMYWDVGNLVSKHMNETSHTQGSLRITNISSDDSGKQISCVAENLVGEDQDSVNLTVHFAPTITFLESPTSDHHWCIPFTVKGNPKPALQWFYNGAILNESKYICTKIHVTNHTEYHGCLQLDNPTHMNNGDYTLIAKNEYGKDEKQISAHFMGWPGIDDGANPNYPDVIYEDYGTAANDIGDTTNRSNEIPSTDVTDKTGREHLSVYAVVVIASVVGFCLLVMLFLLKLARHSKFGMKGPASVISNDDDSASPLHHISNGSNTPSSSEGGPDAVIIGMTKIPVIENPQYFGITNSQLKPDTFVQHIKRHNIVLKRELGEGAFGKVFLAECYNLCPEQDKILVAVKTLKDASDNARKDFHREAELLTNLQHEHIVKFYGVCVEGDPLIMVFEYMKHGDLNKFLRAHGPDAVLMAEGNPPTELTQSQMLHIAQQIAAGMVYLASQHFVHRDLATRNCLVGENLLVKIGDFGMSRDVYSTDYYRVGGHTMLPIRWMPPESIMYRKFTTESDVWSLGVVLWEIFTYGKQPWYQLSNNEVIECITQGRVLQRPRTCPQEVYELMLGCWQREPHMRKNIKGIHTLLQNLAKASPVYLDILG

T1 sequence (Q96SW2 whole entry, looked up): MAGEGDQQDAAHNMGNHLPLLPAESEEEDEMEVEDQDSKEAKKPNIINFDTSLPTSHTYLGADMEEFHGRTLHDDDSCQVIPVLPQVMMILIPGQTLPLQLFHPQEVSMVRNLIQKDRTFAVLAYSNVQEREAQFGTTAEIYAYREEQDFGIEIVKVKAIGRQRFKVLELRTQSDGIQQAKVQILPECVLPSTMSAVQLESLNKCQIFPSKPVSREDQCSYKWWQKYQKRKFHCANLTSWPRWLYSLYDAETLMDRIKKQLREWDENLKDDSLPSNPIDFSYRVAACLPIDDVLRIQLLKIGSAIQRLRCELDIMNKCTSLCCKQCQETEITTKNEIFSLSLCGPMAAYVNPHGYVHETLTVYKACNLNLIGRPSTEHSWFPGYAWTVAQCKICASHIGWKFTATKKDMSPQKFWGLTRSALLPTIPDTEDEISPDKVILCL
T1 sequence (Q9Y616 whole entry, looked up): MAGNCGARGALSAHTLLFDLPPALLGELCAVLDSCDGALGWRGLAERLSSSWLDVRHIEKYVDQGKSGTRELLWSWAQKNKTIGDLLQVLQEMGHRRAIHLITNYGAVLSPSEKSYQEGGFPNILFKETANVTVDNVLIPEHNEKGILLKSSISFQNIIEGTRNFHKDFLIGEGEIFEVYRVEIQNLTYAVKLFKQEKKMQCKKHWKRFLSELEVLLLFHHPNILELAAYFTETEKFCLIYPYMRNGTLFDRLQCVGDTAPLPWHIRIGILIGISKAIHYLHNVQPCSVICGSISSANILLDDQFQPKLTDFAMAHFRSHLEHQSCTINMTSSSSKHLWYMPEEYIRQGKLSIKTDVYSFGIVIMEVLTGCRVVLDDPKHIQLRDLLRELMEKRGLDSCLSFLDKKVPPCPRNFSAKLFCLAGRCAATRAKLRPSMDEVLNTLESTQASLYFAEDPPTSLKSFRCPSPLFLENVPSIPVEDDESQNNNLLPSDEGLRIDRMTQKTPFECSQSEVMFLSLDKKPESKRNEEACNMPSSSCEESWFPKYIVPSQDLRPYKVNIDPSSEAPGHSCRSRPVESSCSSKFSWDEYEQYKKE
Chain of NT-3 growth factor receptor (Q16288 whole entry): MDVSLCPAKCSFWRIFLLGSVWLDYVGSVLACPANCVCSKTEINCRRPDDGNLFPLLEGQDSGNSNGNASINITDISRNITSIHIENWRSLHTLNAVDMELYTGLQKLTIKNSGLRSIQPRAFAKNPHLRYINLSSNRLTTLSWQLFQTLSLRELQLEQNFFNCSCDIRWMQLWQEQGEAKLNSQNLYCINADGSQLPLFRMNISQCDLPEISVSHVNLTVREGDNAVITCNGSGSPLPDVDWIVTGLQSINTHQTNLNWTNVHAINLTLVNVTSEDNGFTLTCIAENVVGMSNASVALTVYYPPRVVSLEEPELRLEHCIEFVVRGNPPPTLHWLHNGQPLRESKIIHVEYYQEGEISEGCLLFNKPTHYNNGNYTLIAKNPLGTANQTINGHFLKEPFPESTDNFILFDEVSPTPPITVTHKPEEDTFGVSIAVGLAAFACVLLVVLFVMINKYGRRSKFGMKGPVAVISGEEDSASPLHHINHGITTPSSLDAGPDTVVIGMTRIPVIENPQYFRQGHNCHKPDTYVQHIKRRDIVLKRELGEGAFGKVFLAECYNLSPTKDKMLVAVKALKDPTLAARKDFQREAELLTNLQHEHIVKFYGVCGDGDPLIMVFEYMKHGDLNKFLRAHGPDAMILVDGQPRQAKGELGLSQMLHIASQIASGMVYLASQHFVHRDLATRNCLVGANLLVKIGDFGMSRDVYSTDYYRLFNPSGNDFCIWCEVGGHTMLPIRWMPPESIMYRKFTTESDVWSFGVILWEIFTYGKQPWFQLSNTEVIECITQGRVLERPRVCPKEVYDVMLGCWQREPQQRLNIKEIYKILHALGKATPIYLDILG
Chain of CDK8/Cyclin C (P49336 whole entry): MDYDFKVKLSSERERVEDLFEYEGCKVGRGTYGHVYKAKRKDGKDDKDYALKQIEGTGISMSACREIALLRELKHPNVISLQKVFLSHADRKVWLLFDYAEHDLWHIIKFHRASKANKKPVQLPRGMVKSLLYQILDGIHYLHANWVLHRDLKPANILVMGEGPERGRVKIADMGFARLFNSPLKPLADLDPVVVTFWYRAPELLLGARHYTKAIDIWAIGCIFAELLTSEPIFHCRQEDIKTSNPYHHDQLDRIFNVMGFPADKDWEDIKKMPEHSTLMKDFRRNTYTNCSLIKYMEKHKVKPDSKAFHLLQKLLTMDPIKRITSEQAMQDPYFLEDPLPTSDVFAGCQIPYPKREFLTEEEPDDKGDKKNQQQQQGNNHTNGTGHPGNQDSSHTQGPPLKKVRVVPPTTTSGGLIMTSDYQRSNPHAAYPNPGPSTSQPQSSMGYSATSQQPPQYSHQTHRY
Chain of CDK8/Cyclin C (P24863 whole entry, further chain): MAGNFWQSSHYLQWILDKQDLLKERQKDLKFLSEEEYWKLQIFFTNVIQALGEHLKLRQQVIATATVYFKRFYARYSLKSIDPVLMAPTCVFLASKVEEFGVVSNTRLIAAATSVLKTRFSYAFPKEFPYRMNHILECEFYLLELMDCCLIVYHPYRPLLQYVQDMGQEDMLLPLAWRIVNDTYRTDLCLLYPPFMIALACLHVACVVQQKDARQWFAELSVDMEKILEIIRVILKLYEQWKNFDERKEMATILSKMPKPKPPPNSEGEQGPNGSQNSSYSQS
Chain of Cyclin-dependent kinase 8 (P49336 whole entry): as the sequence (P49336 whole entry) above

CC(C)c1ccn2ncnc(N[C@H]3CC[C@@H](N4CCN(C(=O)CCC(=O)N5CCC(CCN6CCN(c7ccc8c(c7)C(=O)N(C7CCC(=O)NC7=O)C8=O)CC6)CC5)CC4)CC3)c12 (stereo partly drawn)
Kd [1]: 1400 nM | Selectivity ratio (THP-1 [2]): 23 | Emax [3]: 98% | Activity [4]: inactive | Activity [5]: inactive | logD [6]: 3.1 | IC50 [7]: 100 nM | Activity [8]: Active | Kd [9]: 780 nM | Activity [10]: inactive | inhibition [11]: 82% | Selectivity ratio (THP-1 [12]): 82 | Selectivity ratio (THP-1 [13]): 41 | inhibition [14]: 57% | Activity [15]: inactive | Activity [16]: Active | IC50 (CDK8/Cyclin C): 36 nM | inhibition [17]: 45%

— ChEMBL document CHEMBL4725370, “Discovery of Proteolysis-Targeting Chimera Molecules that Selectively Degrade the IRAK3 Pseudokinase” (J Med Chem, 2020)
